System: cancer cells of the spheroid
Experiment: Spheroid culture with anticancer substance injected through sub-injection part; live/dead cancer cell viability
Assay type: cell-based
Settings: spheroid formed for 12 to 36 hours, then anticancer substance for 12 to 36 hours; increasing injected volume of TMZ; Dead/Live/Merge images, microscope
Procedure: Referring to FIG. 11 to FIG. 13, a spheroid generator 10 in which the size of a sub-injection part 18 is increased from one side to the other side of a culture plate 120 is disposed (S11). In this case, main injection parts 14 having the same size are formed in all of the spheroid generators 10.
A cancer cell solution 21 is prepared (S12). That is, the cancer cell solution 21 is prepared by mixing a plurality of cancer cells with a culture medium 24.
The cancer cell solution 21 is injected into the main injection parts 14 of the plurality of spheroid generators 10 (S13). In this case, since main injection parts 14 having the same size are formed in all of the spheroid generators 10, the same amount of the cancer cell solution 21 is injected into all of the main injection parts 14.
As the cancer cells of the cancer cell solution 21 are cultured in the plurality of spheroid generators 10, a spheroid 25 is formed (S14). In this case, the step of forming a spheroid 25 as the cancer cells of the cancer cell solution 21 are cultured in the plurality of spheroid generators 10 is performed for 12 to 36 hours.
An anticancer substance 23 is injected into a sub-injection part 18 of the plurality of spheroid generators 10 (S15). […]

In the case of Cn1nnc2c(C(N)=O)ncn2c1=O [TMZ], the “relative viability of cancer cells” value is reported as “decreases”.

— patent US20230295580A1, “SPHEROID GENERATOR, SPHEROID CULTURE KIT, AND SPHEROID CULTURE METHOD” (RESEARCH AND BUSINESS FOUNDATION SUNGKYUNKWAN UNIVERSITY, priority 2020, published 2023)
